Measured values reported in patent US8829193B2, “PIM kinase inhibitors and methods of their use” (Novartis AG, priority 2008, dated 2014).
pEC50, pIC50: −log10 of the molar value.

Experiments:
[1] = test system: KMS11 (human myeloma cell line); experiment: Cell Proliferation Assay; format: cell-based; details: KMS-11, 72 h, KMS11 cells, 3 days, Cell Titer-Glow
Experimental: KMS11 (human myeloma cell line), were cultured in IMDM supplemented with 10% FBS, sodium pyruvate and antibiotics. Cells were plated in the same medium at a density of 2000 cells per well into 96 well tissue culture plates, with outside wells vacant, on the day of assay. MM1.s (human myeloma cell line), were cultured in RPMI1640 supplemented with 10% FBS, sodium pyruvate and antibiotics. Cells were plated in the same medium at a density of 5000 cells per well into 96 well tissue culture plates, with outside wells vacant, on the day of assay.
Test compounds supplied in DMSO were diluted into DMSO at 500 times the desired final concentrations before dilution into culture media to 2 times final concentrations. Equal volumes of 2× compounds were added to the cells in 96 well plates and incubated at 37° C. for 3 days.
After 3 days plates were equilibrated to room temperature and equal volume of Cell Titer-Glow Reagent (Promega) was added to the culture wells. The plates were agitated briefly and luminescent signal was measured with luminometer.
Using the procedures for Cell Proliferation Assay described above, the EC50 concentration of compounds of the previous examples were determined in KMS11 cells as shown in the following table.

Pim1 kinase = Pim1 kinase (Homo sapiens (Human), UniProt P11309); experiment: Pim1 ATP depletion assay; format: biochemical; details: 20 μM ATP, 40 μM BAD peptide, 2.5 nM PIM1
Experimental: (§1) The activity of PIM1 is measured using a luciferase-luciferin based ATP detection reagent to quantify ATP depletion resulting from kinase-catalyzed phosphoryl transfer to a peptide substrate. Compounds to be tested are dissolved in 100% DMSO and directly distributed into white 384-well plates at 0.5 μl per well. […] After 15 minutes, 10 μl of 40 μM ATP in assay buffer is added. Final assay concentrations are 2.5 nM PIM1, 20 μM ATP, 40 μM BAD peptide and 2.5% DMSO. The reaction is performed until approximately 50% of the ATP is depleted, then stopped with the addition of 20 μl KinaseGlo Plus (Promega Corporation) solution. The stopped reaction is incubated for 10 minutes and the remaining ATP detected via luminescence on the Victor2 (Perkin Elmer).

Pim2 kinase = Pim2 kinase (Homo sapiens (Human), UniProt Q9P1W9); experiment: Pim2 ATP depletion assay; format: biochemical; details: 4 μM ATP, 10 μM BAD peptide, 5 nM PIM2
Experimental: as §1, with “of PIM2” for “of PIM1”, “0.5 piper” for “0.5 μl per”, “of 8” for “of 40”, “are 5” for “are 2.5”, “nM PIM2, 4” for “nM PIM1, 20”, “ATP, 10” for “ATP, 40”

Pim3 kinase = Pim3 kinase (Homo sapiens (Human), UniProt Q86V86); experiment: Pim3 ATP depletion assay; format: biochemical; details: 40 μM ATP, 100 μM BAD peptide
Experimental: The activity of PIM3 is measured using a luciferase-luciferin based ATP detection reagent to quantify ATP depletion resulting from kinase-catalyzed phosphoryl transfer to a peptide substrate. Compounds to be tested are dissolved in 100% DMSO and directly distributed into white 384-well plates at 0.5 piper well. […] After 15 minutes, 10 μl of 80 μM ATP in assay buffer is added. Final assay concentrations are 5 nM PIM1, 40 μM ATP, 100 μM BAD peptide and 2.5% DMSO. The reaction is performed until approximately 50% of the ATP is depleted, then stopped by the addition of 20 μl KinaseGlo Plus (Promega Corporation) solution. The stopped reaction is incubated for 10 minutes and the remaining ATP detected via luminescence on the Victor2 (Perkin Elmer).

Pim1 kinase, sequence (P11309 whole entry): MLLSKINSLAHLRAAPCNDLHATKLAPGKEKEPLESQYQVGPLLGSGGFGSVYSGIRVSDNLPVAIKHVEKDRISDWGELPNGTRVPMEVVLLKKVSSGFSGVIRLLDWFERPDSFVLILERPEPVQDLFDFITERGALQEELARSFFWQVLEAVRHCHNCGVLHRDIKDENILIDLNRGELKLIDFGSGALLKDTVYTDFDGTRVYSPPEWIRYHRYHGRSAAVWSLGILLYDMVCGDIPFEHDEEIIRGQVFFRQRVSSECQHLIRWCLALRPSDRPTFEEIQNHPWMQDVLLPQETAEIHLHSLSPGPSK
Pim2 kinase, sequence (Q9P1W9 whole entry): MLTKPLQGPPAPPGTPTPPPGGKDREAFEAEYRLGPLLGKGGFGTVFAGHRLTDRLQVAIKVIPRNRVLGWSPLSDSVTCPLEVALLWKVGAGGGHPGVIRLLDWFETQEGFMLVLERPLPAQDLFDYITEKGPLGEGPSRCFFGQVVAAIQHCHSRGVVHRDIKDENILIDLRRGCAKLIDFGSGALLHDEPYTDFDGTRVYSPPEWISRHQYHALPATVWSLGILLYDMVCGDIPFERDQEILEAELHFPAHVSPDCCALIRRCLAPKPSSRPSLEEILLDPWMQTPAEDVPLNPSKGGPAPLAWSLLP

Row | SMILES | pEC50 [1] | pIC50 (Pim1 kinase) | pIC50 (Pim2 kinase) | pIC50 (Pim3 kinase)
1 | N[C@H]1CCCN(c2ccncc2NC(=O)c2csc(-c3c(F)cccc3F)n2)C1 [Example 1, (S)-N-(4-(3-aminopiperidin-1-yl)pyridin-3-yl)-2-(2,6-difluorophenyl)thiazole-4-carboxamide] | 5.93 | – | – | –
2 | CC1CC(N)CN(c2ccncc2NC(=O)c2csc(-c3c(F)cccc3F)n2)C1 (stereo not shown) [Example 14, N-(4-(3-amino-5-methylpiperidin-1-yl)pyridin-3-yl)-2-(2,6-difluorophenyl)thiazole-4-carboxamide] | 6.08 | – | – | –
3 | C[C@@H]1C[C@H](N)CN(c2ccncc2NC(=O)c2csc(-c3c(F)cccc3F)n2)C1 [Example 28, N-(4-((3S,5R)-3-amino-5-methylpiperidin-1-yl)pyridin-3-yl)-2-(2,6-difluoropheenyl)thiazole-4-carboxamide] | 6.40 | – | – | –
4 | Nc1sc(-c2c(F)cccc2F)nc1C(=O)Nc1cnccc1N1CCC[C@H](N)C1 [Example 29, (S)-5-amino-N-(4-(3-aminopiperidin-1-yl)pyridin-3-yl)-2-(2,6-difluorophenyl)thiazole-4-carboxamide] | 7.40 | – | – | –
5 | C[C@@H]1CN(c2ccncc2NC(=O)c2csc(-c3c(F)cccc3F)n2)C[C@@H](N)[C@H]1O [Example 35, N-(4-((3R,4S,5R)-3-amino-4-hydroxy-5-methylpiperidin-1-yl)pyridin-3-yl)-2-(2,6-difluorophenyl)thiazole-4-carboxamide] | – | 8.05 | 6.90 | 8.05
6 | C[C@@H]1C[C@H](N)C[C@H](c2ccncc2NC(=O)c2csc(C3CCCCC3)n2)C1 [Example 40, N-(4-((1R,3S,5S)-3-amino-5-methylcyclohexyl)pyridin-3-yl)-2-cyclohexylthiazole-4-carboxamide] | – | 7.39 | 7.01 | 6.96
7 | C[C@H]1C[C@@H](c2ccncc2NC(=O)c2csc(C3CCCCC3)n2)C[C@@H](N)[C@@H]1O [Example 42, N-(4-((1R,3R,4R,5S)-3-amino-4-hydroxy-5-methylcyclohexyl)pyridin-3-yl)-2-cyclohexylthiazole-4-carboxamide] | – | 6.84 | 6.60 | 6.67
8 | C[C@H]1C[C@@H](c2ccncc2NC(=O)c2csc(-c3c(F)cccc3F)n2)C[C@@H](N)[C@H]1O [Example 43, N-(4-((1R,3R,4S,5S)-3-amino-4-hydroxy-5-methylcyclohexyl)pyridin-3-yl)-2-(2,6-difluorophenyl)thiazole-4-carboxamide (and enantiomer)] | – | 8.30 | 7.34 | 7.82

Continued, values first:

Row | pEC50 [1] | pIC50 (Pim1 kinase) | pIC50 (Pim2 kinase) | pIC50 (Pim3 kinase) | SMILES
9 | – | 9.00 | 7.80 | 8.52 | CC1(C)C[C@H](N)C[C@H](c2ccncc2NC(=O)c2csc(-c3c(F)cccc3F)n2)C1 [Example 46, N-(4-((1R,5R)-5-amino-3,3-dimethylcyclohexyl)pyridin-3-yl)-2-(2,6-difluorophenyl)thiazole-4-carboxamide]
10 | – | 8.70 | 7.75 | 8.64 | N[C@H]1CCCN(c2ccncc2NC(=O)c2csc(-c3ccccc3)n2)C1 [Example 48, (S)-N-(4-(3-aminopiperidin-1-yl)pyridin-3-yl)-2-phenylthiazole-4-carboxamide]
11 | – | 8.72 | 8.00 | 8.38 | N[C@H]1CCCN(c2ccncc2NC(=O)c2csc(-c3ccccc3F)n2)C1 [Example 49, (S)-N-(4-(3-aminopiperidin-1-yl)pyridin-3-yl)-2-(2-fluorophenyl)thiazole-4-carboxamide]
12 | – | 8.49 | 7.08 | 8.08 | CC(C)NC(=O)c1ccc(F)c(-c2nc(C(=O)Nc3cnccc3N3CCC[C@H](N)C3)cs2)c1 [Example 50, (S)-N-(4-(3-aminopiperidin-1-yl)pyridin-3-yl)-2-(2-fluoro-5-(isopropylcarbamoyl)phenyl)thiazole-4-carboxamide]
13 | – | 9.00 | 7.70 | 8.52 | CC(C)Oc1ccc(F)c(-c2nc(C(=O)Nc3cnccc3[C@@H]3C[C@H](C)C[C@H](N)C3)cs2)c1F [Example 53]
